Reference: patent US10933075B2, “Materials and methods for suppressing and/or treating bacterial infections and related symptoms” (Indiana University Research and Technology Corporation, priority 2017, dated 2021)

Assays:
[1] = in vivo; cited from earlier work
[2] = system: SaeRS two component system (P1 promoter); experiment: pYJ-P1-GFP reporter, Sae activity (P1 promoter activity); type: cell-based, S. aureus strain USA300; details: grown in TSB for 3 h, various concentrations (FIG. 3B)
Description: FIG. 3B. Graph illustrating the effect of three compounds on Sae activity of Staphylococcus aureus. Cells were grown in TSB for 3 hours in the presence of the compounds (e.g., Streptozotocin, Floxuridine, and Doxorubicin) using various concentrations as indicated. The P1 promoter has two SaeR binding sites and its activity is an excellent indicator for the Sae activity.
The sae operon consists of four genes (saeP, saeQ, saeR, and saeS), and the two promoters P1 and P3. The P1 promoter resides in the front of the very first gene saeP and can transcribe all four genes. The P1 promoter has two SaeR binding sequences (SBSs). The P1 promoter in front of the sae operon is well characterized target of the SaeRS two component system. Here, the reporter plasmid pYJ-P1-GFP was used in the library screening and the expression level of GFP was interpreted as the Sae activity.
(§1) In the library screening, S. aureus strain USA300 was grown with pYJ-P1-GFP in the presence of 10 μM test compound for 3 hours. Then the effects of the each drug on growth and GFP expression were measured. In the primary screening, about 9,000 test compounds (3,000 FDA-approved drugs, 6,000 DCL library compounds) were tested.
(§2) Referring now to FIGS. 3A and 3B, the effects of the three compounds on growth (A) and Sae activity (B) of Staphylococcus aureus were measured. The cells were grown in TSB for 3 h in the presence of the compounds with various concentrations as indicated.

Staphylococcus aureus = experiment: Effect on growth of Staphylococcus aureus; type: cell-based; details: grown in TSB for 3 h, various concentrations (FIG. 3A)
Description: FIG. 3A. Graph illustrating the effect of three compounds on growth of Staphylococcus aureus. Cells were grown in TSB for 3 hours in the presence of the compounds (e.g., Streptozotocin, Floxuridine, and Doxorubicin) using various concentrations as indicated.
as §1, §2

S. aureus USA300 = experiment: Murine model of peritoneal infection (survival, anti-virulence effect); type: in vivo, mice; details: for anti-virulence activity against S. aureus infection in mice (percent survival): S. aureus 2×10^8 CFU i.p., n=10-18 (FIGS. 4-6); for anti-virulence effect: mice i.p. infected with S. aureus USA300, 50 μg i.p. once every day for 7 days, from one hour post infection; for anti-virulence effect, confirmation by repeating the mouse experiment: repeat of the mouse experiment; for in vivo efficacy, dose dependence: administered after infection for 7 days (FIG. 7)
Description: FIG. 4. Effect of Streptozotocin on survival. […] Open circles represent percent survival of treated mice (i.e., steptozotocin) after the indicated period. Closed circles represent percent survival of untreated mice (i.e., control). S. aureus (2×10^8 CFU) were i.p. injected into mice (n=10-18).
In this model, mice were i.p. infected with S. aureus USA300. One hour post infection, the test compounds were administered via i.p. injection once every day for 7 days.
To determine the minimal dosage of the compounds for their protective effect, a different amount of the compounds (0-100 μg) were administered after S. aureus infection for 7 days as described above.
The biological half-life of streptozotocin is about 35-40 min. […] Although we administered the compounds every day for 7 days, due to their short half-lives, it is likely that S. aureus cells were exposed to the compounds only briefly. […] To examine the hypothesis, after 2 h post infection with S. aureus, we administered the compounds only once (25 μg for streptozotocin and floxuridine; 50 μg for doxorubicin) and watched the infected mice for 7 days.

[3] = system: Agr quorum sensing system, Arl two-component system, SarA DNA binding protein; experiment: qRT-PCR of agrC, arlS, sarA transcription normalized by gyrB; type: cell-based, S. aureus USA300; details: 1 μg/mL (=3.8 μM for streptozotocin, 4 μM for floxuridine), 3 h (FIG. 9)
Description: FIG. 9. Streptozotocin (SZ) and floxuridine (FU) repress other signalling systems critical for staphylococcal virulence. The transcription level of the indicated genes was analyzed by qRT-PCR and normalized by the transcription level of gyrB. agrC, the gene of the sensor kinase of the Agr quorum sensing system; arlS, the gene of the sensor kinase of the Arl two componenet system; sarA, the gene of the DNA binding protein SarA; NT, no treatment.
The virulence of S. aureus is thought to be controlled by multiple signaling systems. Along with the Sae signaling system, the Agr quorum sensing system, Arl two-component system, and SarA DNA binding protein are known to contribute to staphylococcal virulence. To explain the high in vivo efficacy of streptozotocin and floxuridine, S. aureus USA300 was treated with 1 μg/mL (=3.8 μM for streptozotocin, 4 μM for floxuridine) for 3 h, purified total RNA and carried out qRT-PCR.

SMILES | Sae activity (P1 promoter activity) [2] | growth of Staphylococcus aureus (Staphylococcus aureus) | anti-virulence activity against S. aureus infection in mice (percent survival) (S. aureus USA300) | anti-virulence effect (S. aureus USA300) | anti-virulence effect, confirmation by repeating the mouse experiment (S. aureus USA300) | transcription level of agrC, arlS, sarA (signaling systems critical for virulence) [3] | also measured
O=c1[nH]cc(F)c(=O)[nH]1 [5-FU, 5′fluorouracil] |  |  |  |  |  |  | half-life [1]: 8 to 14 min
COc1cccc2c1C(=O)c1c(O)c3c(c(O)c1C2=O)C[C@@](O)(C(=O)CO)C[C@@H]3O[C@H]1C[C@H](N)[C@H](O)[C@H](C)O1 [Doxorubicin] | reduced P1 promoter activity | reduced growth | exhibited anti-virulence activity | anti-virulence effect | significant anti-virulence effect |  | 
O=C1OC2(c3ccccc31)c1cc(I)c(O)c(I)c1Oc1c2cc(I)c(O)c1I [Erythrosine sodium] |  |  |  | anti-virulence effect |  |  | 
O=c1[nH]c(=O)n([C@H]2C[C@H](O)[C@@H](CO)O2)cc1F [Floxuridine] | reduced P1 promoter activity | reduced growth | exhibited anti-virulence activity | anti-virulence effect | significant anti-virulence effect | inhibit multiple signaling systems | in vivo efficacy, dose dependence (S. aureus USA300; 10 μg): statistically significant in vivo efficacy; catabolism [1]: rapidly catabolized to 5′fluorouracil
CC(=O)[C@H]1CC[C@H]2[C@@H]3CC=C4C[C@@H](OC(=O)CCC(=O)O)CC[C@]4(C)[C@H]3CC[C@]12C [Pregnenolone succinate] |  |  |  | anti-virulence effect |  |  | 
CN(N=O)C(=O)NC1C(O)[C@H](O)C(CO)O[C@H]1O (stereo partly shown) [Streptozotocin] | reduced P1 promoter activity | reduced growth | exhibited anti-virulence activity | anti-virulence effect | significant anti-virulence effect | inhibit multiple signaling systems | in vivo efficacy, dose dependence (S. aureus USA300; 5 μg): statistically significant in vivo efficacy; in vivo efficacy, dose dependence (S. aureus USA300; 10-100 μg): comparable in vivo efficacy; biological half-life [1]: 35-40 min
